Source: patent publication US10006918B2, “Fluorogenic hydrazine-substituted compounds” (LIFE TECHNOLOGIES CORPORATION, priority 2008, dated 2018)

Assay: Aldehyde reactivity of compounds: fluorogenic reaction with acetaldehyde in phosphate buffer, excitation/emission spectra
Assay type: physicochemical
Description: Spectra were taken at pH 6 in a 50 mM phosphate buffer solution.
Spectra were taken at pH 6 in 50 mM phosphate buffer solution.
A sample of Compound 2 (5 mg, 0.0126 mmol) is dissolved in 10 ml of pH 6.5, 50 mmol phosphate buffer solution. To this non-fluorescent solution, is added 25 ul, 1 mol solution of acetaldehyde in water at room temperature. […] The reaction is complete in 10 minutes to give a stable […] analog. Its absorption max is at 548 nm and emission max is at 580 nm (see FIGS. 3A and B).

[1] = after reaction with acetaldehyde, pH 6.5 phosphate buffer
[2] = aldehyde-reacted, pH 6, 50 mM phosphate buffer, FIG. 3B

## NN=c1ccc2c(-c3ccccc3S(=O)(=O)O)c3ccc(NN)cc3oc-2c1 [Compound 2, 2-(6-hydrazinyl-3-hydrazono-3H-xanthen-9-yl)benzenesulfonate]
25 ul 1 mol acetaldehyde in water, room temperature, pH 6.5 phosphate buffer, within a few minutes
  fluorescence of solution after addition of acetaldehyde: highly fluorescent
acetaldehyde, pH 6, 50 mM phosphate buffer, FIG. 1
  change of fluorescence upon reaction with an aldehyde (emission spectra before and after contact with acetaldehyde): significant fluorescent increase
[1]
  absorption max of acetaldehyde reaction product: 548 nm
  emission max of acetaldehyde reaction product: 580 nm
[2]
  emission spectra maximum, aldehyde-reacted compound: 581 nm
  excitation maximum, aldehyde-reacted compound: 548 nm
Room temperature, pH 6.5, 50 mmol phosphate buffer
  time to complete reaction with acetaldehyde: 10 min
un-reacted dye, FIG. 3A
  excitation maximum, un-reacted compound: 519 nm
